pIC50: −log10 of the molar value. Values after ≈ are worked out from the molar mass of the structure shown.
Tests used:
[1] = tested on: E. coli (K12 (ATCC 25404), R2 (ATCC 39544), R3 (ATCC 11775), R4 (ATCC 39543)), A. baumannii (ATCC 17978), P. aeruginosa (ATCC 15442), E. cloacae (ATCC 49141) …; assay: Minimum inhibitory concentration (MIC), microtiter plate method with resazurin; format: cell-based, S. aureus; conditions: Gram-negative and Gram-positive bacteria
From the text: The reference bacterial strains of E.coli (K12 ATCC 25404, R2 ATCC 39544, R3 ATCC 11775, and R4 ATCC 39543) and Staphylococcus aureus strain (ATCC 23235), as well as Acinetobacter baumannii (ATCC 17978), Pseudomonas aeruginosa (ATCC 15442), and Enterobacter cloacae (ATCC 49141) were obtained from LGC Standards U.K. and were used according to the recommendation of ISO 11133 [30]. These strains were used to test the antibacterial activity of the analysed compounds by determining the minimum inhibitory concentration (MIC) and minimum bactericidal concentration (MBC), as described in [8, 9, 26, 27, 28, 29, 30, 31]. The results are shown in Figures S33 and S34 in the Supplementary Materials.
MIC and MBC were estimated using a microtiter plate method with sterile 48- or 96-well plates, which is precisely described in [9]. Briefly, MIC and MBC, defined as the lowest concentration of a bacteriostatic agent, were determined. Briefly, 50 μL of the analysed compounds and the appropriate bacterial strains were added to the first row of the plate. Then, 25 μL of sterile Tryptone Soya Broth (TSB) medium was added to the other wells, and serial dilutions were performed. Subsequently, 200 μL of inoculated TSB medium containing resazurin (0.02 mg/mL) as an indicator was added to all wells. TSB medium was inoculated with 10^6 colony-forming units (CFU)/mL (approximately 0.5 McFarland units) of the bacterial strains. The plates were incubated at 30 °C for 24 h. Changes in colour from blue to pink or yellowish with turbidity were considered positive, and the lowest concentration at which no visible change in colour occurred was recorded as the MIC, according to Kowalczyk et al.. Each experiment (both MIC and MBC) was repeated at least three times.

[2] = tested on: S. aureus strain (ATCC 23235); format: cell-based, Staphylococcus aureus; conditions: S. aureus (ATCC 23235)
[3] = tested on: S. aureus; conditions: against S. aureus; cited from earlier work
[4] = tested on: BALB/c3T3 mouse embryonic fibroblast cell line; assay: MTT cytotoxicity assay
Method: (§1) The cytotoxic effects of the tested peptidomimetics 1–16 on BALB/c3T3 mouse fibroblast cells were determined using the MTT assay after 24 h of incubation at five different concentrations (1, 2, 4, 6, and 8 µg/mL). The MTT test is based on the ability of the mitochondrial dehydrogenase enzymes to convert an orange, water-soluble tetrazolium salt (3-(4,5-dimethylthiazol-2-yl)-2,5-diphenyltetrazolium bromide) into an insoluble formazan, which is a dark blue product of the above reaction. After dissolving the formazan crystals in DMSO or isopropanol, a coloured solution was formed, the intensity of which is measured spectrophotometrically within the wavelength range of 492–570 nm. The amount of coloured reduced MTT is proportional to the oxidative activity of the cell’s mitochondria and, under strictly defined experimental conditions, to the number of metabolically active (living) cells in the population. The MTT test can also be used to determine cell viability in populations of cells that no longer divide but are metabolically active.

[5] = MTT cytotoxicity assay; conditions: mouse
Method: as §1

## COc1ccc(CNC(=O)C(OC(=O)Cc2ccccc2)c2c(OC(C)=O)ccc3c(C(F)(F)F)cc(=O)oc23)cc1 (stereo not drawn) [Compound 9, 1-(7-Acetoxy-2-oxo-4-(trifluoromethyl)-2H-chromen-8-yl)-2-((4-methoxybenzyl)amino)-2-oxoethyl 2-phenylacetate]
[1]
  spectrum of antibacterial activity: broad-spectrum activity
[2]
  activity against S. aureus: very potent activity
other
  melting point: 54 to 58 °C

## Cc1cc(=O)oc2cc(OCc3ccc(-c4ccccc4)cc3)ccc12 [A]
[3]
  pIC50: 5.01

## COc1ccc(CNC(=O)C(OC(=O)Cc2ccccc2)c2ccccc2OC(C)=O)cc1 (stereo not drawn) [Compound 14, 1-(2-Acetoxyphenyl)-2-((4-methoxybenzyl)amino)-2-oxoethyl 2-phenylacetate]
[4]; Mus musculus, BALB/c3T3, 24 h, read-out: IC50 for fibroblasts
  IC50: 7.22 µg/mL (≈ 16.1 µM)

## Cc1onc(-c2ccccc2Cl)c1C(=O)N[C@@H]1C(=O)N2[C@@H]1SC(C)(C)[C@@H]2C(=O)O [cloxacillin, reference compound]
[5]; BALB/c3T3 mouse embryonic fibroblast cells
  viability: 85 to 89.9%

## CC(=O)Oc1cc(Br)ccc1C(OC(=O)Cc1ccccc1)C(=O)NCc1ccccc1 (stereo not drawn)
other
  melting point: 122 to 124 °C

## CC(=O)Oc1ccc2ccc(=O)oc2c1C(OC(=O)Cc1ccccc1)C(=O)NCc1ccccc1 (stereo not drawn) [Compound 3, 1-(7-Acetoxy-2-oxo-2H-chromen-8-yl)-2-(benzylamino)-2-oxoethyl 2-phenylacetate]
[1]
  spectrum of antibacterial activity: broad-spectrum activity
other
  melting point: 64 to 66 °C

## COc1ccc(CNC(=O)C(OC(=O)Cc2ccccc2)c2ccc(Br)cc2OC(C)=O)cc1 (stereo not drawn)
other
  melting point: 107 to 108 °C

## CC(=O)Oc1ccc2c(C(F)(F)F)cc(=O)oc2c1C(OC(=O)Cc1ccccc1)C(=O)NCc1ccc(F)cc1 (stereo not drawn)
other
  melting point: 51 to 55 °C

## COc1ccc(CNC(=O)C(OC(=O)Cc2ccccc2)c2c(OC(C)=O)ccc3ccc(=O)oc23)cc1 (stereo not drawn) [Compound 4, 1-(7-Acetoxy-2-oxo-2H-chromen-8-yl)-2-((4-methoxybenzyl)amino)-2-oxoethyl 2-phenylacetate]
[1]
  spectrum of antibacterial activity: broad-spectrum activity
other
  melting point: 57 to 59 °C

## 1-(7-Acetoxy-4-methyl-2-oxo-2H-chromen-8-yl)-2-((4-fluorobenzyl)amino)-2-oxoethyl 2-phenylacetate [Compound 1]
[1]
  spectrum of antibacterial activity: broad-spectrum activity
[4]; after 24 h of incubation
  IC50 for fibroblasts: 4.26 µg/mL

## CC(=O)Oc1ccc2ccc(=O)oc2c1C(OC(=O)Cc1ccccc1)C(=O)NCc1ccc(F)cc1 (stereo not drawn)
other
  melting point: 61 to 63 °C

## COc1ccc(CNC(=O)C(OC(=O)Cc2ccccc2)c2c(OC(C)=O)ccc3c(C)cc(=O)oc23)cc1 (stereo not drawn) [Compound 2, 1-(7-Acetoxy-4-methyl-2-oxo-2H-chromen-8-yl)-2-((4-methoxybenzyl)amino)-2-oxoethyl 2-phenylacetate]
[1]
  spectrum of antibacterial activity: broad-spectrum activity
other
  melting point: 66 to 68 °C

## CC(=O)Oc1ccc2c(C(F)(F)F)cc(=O)oc2c1C(OC(=O)Cc1ccccc1)C(=O)NCc1ccccc1 (stereo not drawn)
other
  melting point: 54 to 57 °C

## Cc1cc(=O)oc2c(C)c(OCc3ccc(-c4ccccc4)cc3)ccc12 [Compound B]
[3]
  pIC50: 5.52

## CC(=O)Oc1ccc2c(C)cc(=O)oc2c1C(OC(=O)Cc1ccccc1)C(=O)NCc1ccc(F)cc1 (stereo not drawn) [Compound 6, 1-(7-Acetoxy-4-methyl-2-oxo-2H-chromen-8-yl)-2-((4-fluorobenzyl)amino)-2-oxoethyl 2-phenylacetate]
other
  melting point: 56 to 59 °C
[5]
  viability at 24 h, 2 µg/mL: 87%

## CC(=O)Oc1ccccc1C(OC(=O)Cc1ccccc1)C(=O)NCc1ccccc1 (stereo not drawn) [Compound 15, 1-(2-Acetoxyphenyl)-2-(benzylamino)-2-oxoethyl 2-phenylacetate]
[5]
  viability at 24 h, 2 µg/mL: 66.5%

## COc1ccc(CNC(=O)C(O)c2ccc(Br)cc2O)cc1 (stereo not drawn)
other
  melting point: 96 to 100 °C
